From patent US6852722B2, “Compositions and methods for stimulating gastrointestinal mobility” (Pfizer Inc., priority 2000, dated 2005)

Test system: Male CD Sprague-Dawley rats
Assay: Gastrointestinal transit in rats (51Cr marker: gastric emptying and geometric center)
Assay type: in vivo, rat
Conditions: for effect on gastrointestinal transit: 0.1 mg/kg oral; for % Gastric Emptying: 51Cr marker 15 min after dose, killed 20 min later; for % Gastric Emptying / Geometric Center: mean ± SEM; for Geometric Center: stomach = segment 0, intestine segments 1-10; for increase in gastric emptying / increase in geometric center (transit through stomach and small intestine): relative to vehicle
Protocol: Male CD Sprague-Dawley rats (175-225 grams) are fitted with tail cups to prevent coprophagy and fasted overnight. The next day the rats are orally given either vehicle (water, 5 ml/kg) or a solution of the test compound in water at doses of 0.1, 0.5, 1 or 5 mg/kg p.o. Fifteen minutes later, the rats are given 1.0 ml of an evaporated milk solution containing 20,000 cpm of ^51Cr as sodium chromate.
The rats are killed 20 minutes after administration of the radioactive marker. The gastroesophageal, pyloric, and ileocecal junctions are ligated, the stomach is removed and the small intestine is divided into ten equal lengths. The stomach and each length of intestine are assayed for radioactivity with a gamma counter. Gastric emptying is determined for each rat by comparing the amount of radioactivity in the intestine relative to the total in the intestine plus stomach. In addition, the geometric center of the distribution of the radioactive marker is used to measure the overall transit rate through the stomach and intestine. Geometric center is calculated as: Σ((fraction of ^51Cr per segment)×(segment number)). For these calculations the stomach is segment number 0 while the ten intestinal segments are designated 1 to 10. Thus, a geometric center of 0.0 would indicate that the entire load of ^51Cr had remained in the stomach.
Results from test compound-treated rats and vehicle-treated rats are compared using one-way ANOVA and Dunnett's test for simultaneous multiple comparisons. The effect of the test compound on gastrointestinal transit in rats is evaluated by measuring gastric emptying and the geometric center of distribution of an orally administered radioactive marker.

Compound | effect on gastrointestinal transit | % Gastric Emptying (0.1 mg/kg p.o.) [%] | Geometric Center (0.1 mg/kg p.o.) | increase in gastric emptying (0.5 mg/kg oral) [%] | increase in geometric center (transit through stomach and small intestine) (0.5 mg/kg oral) [%] | % Gastric Emptying (0.5 mg/kg p.o.) | Geometric Center (0.5 mg/kg p.o.) | increase in geometric center (transit through stomach and small intestine) (1 mg/kg oral) [%] | increase in gastric emptying (1.0 mg/kg oral) [%] | % Gastric Emptying (1 mg/kg p.o.) | % Gastric Emptying (1 mg/kg p.o., listed as 1st test compound) | Geometric Center (1 mg/kg p.o.) | increase in geometric center (transit through stomach and small intestine) (5 mg/kg oral) [%] | increase in gastric emptying (5.0 mg/kg oral) [%] | % Gastric Emptying (5 mg/kg p.o.) | % Gastric Emptying (5 mg/kg p.o., listed as 1st test compound) | Geometric Center (5 mg/kg p.o.) | gastric emptying and transport through the upper GI tract (doses of 0.5, 1 and 5 mg/kg oral)
CN1N=C2CCN(C(=O)[C@@H](COCc3ccccc3)NC(=O)C(C)(C)N)C[C@@]2(Cc2ccccc2)C1=O [first test compound, 2-amino-N-(2-(3a-(R)-benzyl-2-methyl-3-oxo-2,3,3a,4,6,7-hexahydro-pyrazolo-[4,3-c]pyridin-5-yl)-1-(R)-benzyloxymethyl-2-oxo-ethyl)-isobutyramide] | no effect | 62.5 ± 3.4 | 2.82 ± 0.17 | 25 | 39 | *79.0 ± 4.2% | *4.03 ± 0.26 | 67 | 45 | 92% | *91.5 ± 1.6% | *4.81 ± 0.21 | 68 | 49 | 94% | *93.7 ± 1.4% | *4.85 ± 0.19 | 
CC(C)(N)C(=O)N[C@H](COCc1ccc(F)cc1F)C(=O)N1CCC2=NN(CC(F)(F)F)C(=O)[C@]2(Cc2ccccn2)C1 [second test compound] | no effect | 68.9 ± 3.4 | 3.1 ± 0.2 | 21 | 37 | *79.5 ± 3.6% | *3.9 ± 0.3 | 50 | 37 | *89.9 ± 2.3% |  | *4.3 ± 0.2 | 42 | 34 | *88.3 ± 2.4% |  | *4.1 ± 0.2 | increased
